Measured values from patent US20110166179A1, “ANTIBACTERIAL QUINOLINE DERIVATIVES” (priority 2007, published 2011).
Values after ≈ are worked out from the molar mass of the structure shown. Like-named read-outs stand apart in the source and are kept apart here.

Legend:
Assay type in all cases: cell-based
[1] = test system: Staphylococcus aureus (ATCC29213); test: In-vitro anti-bacterial microtitre plate assay, IC90 determination, Staphylococcus aureus; conditions: for IC90: read-out: IC90 STA 29213
Method: (§1) D.3. In-Vitro Method for Testing Compounds for Anti-Bacterial Activity Against Various Non-Mycobacterial Strains […] The bacteria used in this study were grown overnight in flasks containing 100 ml Mueller-Hinton Broth (Becton Dickinson-cat. no. 275730) in sterile de-ionized water, with shaking, at 37° C. Stocks (0.5 ml/tube) were stored at -70° C. until use. Bacteria titrations were performed in microtiter plates to detect the TCID50, in which the TCID50 represents the dilution that gives rise to bacterial growth in 50% of inoculated cultures. In general, an inoculum level of approximately 100 TCID50 was used for susceptibility testing. Anti Bacterial Susceptibility Testing: IC90 Determination Microtitre Plate Assay […] Depending on the bacteria type, approximately 10 to 60 CFU per well of bacteria inoculum (100 TCID50), in a volume of 100 μl in 2.8× Mueller-Hinton broth medium, was added to the rows […]. The same volume of broth medium without inoculum was added to column 12 in row A to H. The cultures were incubated at 37° C. for 24 hours under a normal atmosphere (incubator with open air valve and continuous ventilation). At the end of incubation, one day after inoculation, the bacterial growth was quantitated fluorometrically. Therefore resazurin (0.6 mg/ml) was added in a volume of 20 μl to all wells 3 hours after inoculation, and the plates were re-incubated overnight. A change in colour from blue to pink indicated the growth of bacteria. The fluorescence was read in a computer-controlled fluorometer (Cytofluor Biosearch) at an excitation wavelength of 530 nm and an emission wavelength of 590 nm. The % growth inhibition achieved by the compounds was calculated according to standard methods.

[2] = test system: Streptococcus pneumoniae (ATCC6305); test: In-vitro anti-bacterial microtitre plate assay, IC90 determination, Streptococcus pneumoniae; conditions: for IC90: read-out: IC90 SPN 6305
Method: as §1

[3] = test system: M. Smegmatis (ATCC607); test: In-vitro anti-bacterial activity against strain M. Smegmatis ATCC607; conditions: for IC90: Mycolicibacterium smegmatis, read-out: IC90 MSM ATCC607
Method: D.2. In-Vitro Method for Testing Compounds for Anti-Bacterial Activity Against Strain M. Smegmatis ATCC607. Flat-bottom, sterile 96-well plastic microtiter plates were filled with 180 μl of sterile deionized water, supplemented with 0.25% BSA. […] Serial five-fold dilutions (45 μl in 180 μl) were made directly in the microtiter plates from column 2 to 11 using a customised robot system (Zymark Corp., Hopkinton, Mass.). Pipette tips were changed after every 3 dilutions to minimize pipetting errors with high hydrophobic compounds. […] Approximately 250 CFU per well of bacteria inoculum, in a volume of 100 μl in 2.8× Mueller-Hinton broth medium, was added to the rows […]. The same volume of broth medium without inoculum was added to column 12 in row A to H. The cultures were incubated at 37° C. for 48 hours in a humidified 5% CO2 atmosphere (incubator with open air valve and continuous ventilation). At the end of incubation, two days after inoculation, the bacterial growth was quantitated fluorometrically. Therefore Alamar Blue (10×) was added to all wells in a volume of 20 μl and plates were incubated for another 2 hours at […] The fluorescence was read in a computer-controlled fluorometer (Cytofluor, Biosearch) at an excitation wavelength of 530 nm and an emission wavelength of 590 nm (gain 30).

[4] = 90% inhibitory concentration for bacterial growth, Staphylococcus aureus ATCC29213, 24 hours, resazurin fluorescence
[5] = 90% inhibitory concentration for bacterial growth, Streptococcus pneumoniae ATCC6305, 24 hours, resazurin fluorescence
[6] = 90% inhibitory concentration for bacterial growth, M. Smegmatis ATCC607, 48 hours, Alamar Blue fluorescence

| SMILES | IC90 STA 29213 [1, 4] [µg/mL] | IC90 SPN 6305 [2, 5] [µg/mL] | IC90 MSM ATCC607 [3, 6] [µg/mL] | further results |
| --- | --- | --- | --- | --- |
| COc1nc2ccc(-c3ccccc3)cc2cc1C(O)(CCCCCN(C)C)c1cccc2ccccc12 (stereo not drawn) [Compound 6] | 8.00 (≈ 15.9 µM) | 10.07 (≈ 20 µM) | 6.35 (≈ 12.6 µM) |  |
| COc1nc2ccc(-c3cccs3)cc2cc1C(O)(CCCCN(C)C)c1cccc2ccccc12 (stereo not drawn) [Compound 14] | 39.45 (≈ 79.4 µM) | 49.67 (≈ 100 µM) | 15.71 (≈ 31.6 µM) |  |
| COc1nc2ccc(-c3ccoc3)cc2cc1C(O)(CCCCN(C)C)c1cccc2ccccc12 (stereo not drawn) [Compound 11] | 7.62 (≈ 15.9 µM) | 9.59 (≈ 20 µM) | 7.62 (≈ 15.9 µM) |  |
| COc1nc2ccc(-c3cccs3)cc2cc1C(O)(CCCN(C)C)c1cccc2ccccc12 (stereo not drawn) [Compound 13] | 1.53 (≈ 3.17 µM) | 1.71 (≈ 3.54 µM) | 1.53 (≈ 3.17 µM) |  |
| COc1nc2ccc(Br)cc2cc1C(O)(CCCCN(C)C)c1cccc2ccccc12 (stereo not drawn) [Compound 2] | 39.20 (≈ 79.4 µM) | 9.85 (≈ 20 µM) | 7.82 (≈ 15.8 µM) |  |
| COc1ccccc1-c1ccc2nc(OC)c(C(O)(CCCN(C)C)c3cccc4ccccc34)cc2c1 (stereo not drawn) [Compound 7] | 1.60 (≈ 3.16 µM) | 1.8 (≈ 3.55 µM) | 1.60 (≈ 3.16 µM) |  |
| COc1nc2ccc(-c3cccs3)cc2cc1C(O)(CCCCCN(C)C)c1cccc2ccccc12 (stereo not drawn) [Compound 15] | 51.07 (≈ 100 µM) | 51.07 (≈ 100 µM) | 45.52 (≈ 89.1 µM) |  |
| COc1nc2ccc(-c3cccnc3)cc2cc1C(O)(CCCCCN(C)C)c1cccc2ccccc12 (stereo not drawn) [Compound 18] | 8.01 (≈ 15.8 µM) | 8.99 (≈ 17.8 µM) | 8.01 (≈ 15.8 µM) |  |
| COc1nc2ccc(-c3cccnc3)cc2cc1C(O)(CCCN(C)C)c1cccc2ccccc12 (stereo not drawn) [Compound 16] | 7.57 (≈ 15.8 µM) | 7.57 (≈ 15.8 µM) | 1.51 (≈ 3.16 µM) |  |
| COc1nc2ccc(-c3ccoc3)cc2cc1C(O)(CCCN(C)C)c1cccc2ccccc12 (stereo not drawn) [Compound 10] | 1.66 (≈ 3.56 µM) | 3.30 (≈ 7.07 µM) | 1.48 (≈ 3.17 µM) |  |
| COc1nc2ccc(Br)cc2cc1C(O)(CCCCCN(C)C)c1cccc2ccccc12 (stereo not drawn) [Compound 3] | 8.04 (≈ 15.8 µM) | 10.13 (≈ 20 µM) | 11.36 (≈ 22.4 µM) |  |
| COc1nc2ccc(-c3cccnc3)cc2cc1C(O)(CCCCN(C)C)c1cccc2ccccc12 (stereo not drawn) [Compound 17] | 49.16 (≈ 100 µM) | 49.16 (≈ 100 µM) | 49.16 (≈ 100 µM) |  |
| COc1nc2ccc(-c3ccccc3)cc2cc1C(O)(CCCN(C)C)c1cccc2ccccc12 (stereo not drawn) [Compound 4] |  |  |  | IC90 ([1]; Staphylococcus aureus, ATCC29213, 24 h): 1.51 µg/mL (≈ 3.17 µM); IC90 ([2]; Streptococcus pneumoniae, ATCC6305, 24 h): 1.51 µg/mL (≈ 3.17 µM); IC90 ([3]; ATCC607, 48 h): 1.51 µg/mL (≈ 3.17 µM) |
| COc1nc2ccc(-c3cc4ccccc4o3)cc2cc1C(O)(CCCN(C)C)c1cccc2ccccc12 (stereo not drawn) [Compound 19] | 3.66 (≈ 7.08 µM) | 8.19 (≈ 15.9 µM) | 3.26 (≈ 6.31 µM) |  |
| COc1nc2ccc(-c3ccoc3)cc2cc1C(O)(CCCCCN(C)C)c1cccc2ccccc12 (stereo not drawn) [Compound 12] | 1.56 (≈ 3.15 µM) | 1.76 (≈ 3.56 µM) | 1.56 (≈ 3.15 µM) |  |
| COc1ccccc1-c1ccc2nc(OC)c(C(O)(CCCCCN(C)C)c3cccc4ccccc34)cc2c1 (stereo not drawn) [Compound 9] | 8.47 (≈ 15.8 µM) | 8.47 (≈ 15.8 µM) | 8.47 (≈ 15.8 µM) |  |
| COc1nc2ccc(Br)cc2cc1C(O)(CCCN(C)C)c1cccc2ccccc12 (stereo not drawn) [Compound 1] |  |  |  | IC90 [1, 4]: 7.6 µg/mL (≈ 15.9 µM); IC90 [2, 5]: 8.53 µg/mL (≈ 17.8 µM); IC90 [3, 6]: 1.91 µg/mL (≈ 3.98 µM) |
| COc1ccccc1-c1ccc2nc(OC)c(C(O)(CCCCN(C)C)c3cccc4ccccc34)cc2c1 (stereo not drawn) [Compound 8] | 8.25 (≈ 15.8 µM) | 10.39 (≈ 20 µM) | 6.55 (≈ 12.6 µM) |  |
| COc1nc2ccc(-c3cc4ccccc4o3)cc2cc1C(O)(CCCCCN(C)C)c1cccc2ccccc12 (stereo not drawn) [Compound 20] | 1.72 (≈ 3.16 µM) | 1.72 (≈ 3.16 µM) | 1.72 (≈ 3.16 µM) |  |
| COc1nc2ccc(-c3ccccc3)cc2cc1C(O)(CCCCN(C)C)c1cccc2ccccc12 (stereo not drawn) [Compound 5] | 38.97 (≈ 79.4 µM) | 49.07 (≈ 100 µM) | 7.78 (≈ 15.9 µM) |  |
